Experimental data reported in US11123323B2, “Monoterpenes for treating respiratory disorders, in particular bronchopulmonary disorders” (Maria Clemetine Martin Klosterfrau Vertriebsqesellschaft MBH, priority 2008, dated 2021).

How the values were obtained:
[1] = system: IL-1beta production in LPS-stimulated human monocytes; assay: LPS-stimulated production of IL-1beta in human monocytes in vitro (ELISA); format: cell-based; details: for IL-1beta: LPS, 20 hours
Source text: 1,8-Cineol intensifies in particular the action of subtherapeutic concentrations of beclometasone which are relevant for the peripheral respiratory tract.

[2] = system: FCS-stimulated production of superoxides (O2^−) in normal human monocytes; assay: FCS-stimulated superoxide production of normal human monocytes in vitro (INT-formazan); format: cell-based; details: for O2^−: FCS 10%
Protocol: As already described, monocytes were isolated from 50 ml of venous blood which was repeatedly donated voluntarily for the experiments by healthy non-smoking subjects (n=4). […] To this end, the active compounds were incubated together with freshly isolated monocytes (10^5/ml) and the FCS stimulus (10%, from Sigma) for 20 hours in a cell culture medium (RPMI-1640, from Sigma). […] The determination of the cytosolic superoxide production is based on the reduction of the dye p-iodonitrotetrazolium violet (INTV), which reacts specifically with superoxide ions, to iodonitrotetrazolium formazan (formazan). INTV is taken up by the cells into the cytosol. Intracellularly, the nitrogen cycle of the INTV is reduced by free superoxide radicals, giving rise to a water-soluble intermediate and the water-insoluble formazan, which have their absorption maxima at 505 and 490 nm, respectively. […] At the end of an experiment, the cell lysate is (after treatment with hydrochloric acid) measured at 492 nm in a photometer. Here, the absorption of light is proportional to the amount of intracellularly accumulated INT-formazan which can then be determined using a formazan calibration curve. The INT-formazan accumulation for its part is determined as a measure for the intracellular production of superoxide.

[3] = becl. 10^−9 mol/l, Table 5 series
[4] = becl. 10^−9 mol/l, Table 6 series
[5] = becl. 10^−10 mol/l, Table 5 series
[6] = becl. 10^−10 mol/l, Table 6 series
[7] = becl. 10^−11 mol/l, Table 5 series
[8] = becl. 10^−11 mol/l, Table 6 series

C[C@H]1C[C@H]2[C@@H]3CCC4=CC(=O)C=C[C@]4(C)[C@@]3(Cl)[C@@H](O)C[C@]2(C)[C@@]1(O)C(=O)CO [beclometasone]
Effect vs. cineol 10^−6 mol/l Inhibition (%) ([1]; beclometasone 10^−9 mol/l): 25.2 ± 20%
Effect vs. control Inhibition (%) ([1]; beclometasone 10^−9 mol/l): 49.4 ± 20%
IL-1beta ([1]; beclometasone 10^−9 mol/l): 2654 ± 545 Pg/5 × 10^4 cells
Effect vs. control Inhibition (%) ([1]; beclometasone 10^−10 mol/l): 22.9 ± 23%
production of IL-1beta, change ([1]; beclometasone 10^−10 mol/l): −22.9%
Effect vs. cineol 10^−6 mol/l Inhibition (%) ([1]; beclometasone 10^−10 mol/l, (+) in brackets = more IL-1beta than with cineol): (+14 ± 23) %
IL-1beta ([1]; beclometasone 10^−10 mol/l): 4047 ± 940 Pg/5 × 10^4 cells
Effect vs. control Inhibition (%) ([1]; beclometasone 10^−11 mol/l): 19.7 ± 20%
production of IL-1beta, change ([1]; beclometasone 10^−11 mol/l): −19.7%
Effect vs. cineol 10^−6 mol/l Inhibition (%) ([1]; beclometasone 10^−11 mol/l, (+) in brackets = more IL-1beta than with cineol): (+18.9 ± 20) %
IL-1beta ([1]; beclometasone 10^−11 mol/l): 4217 ± 864 Pg/5 × 10^4 cells
Effect vs. control Inhibition (%) ([1]; beclometasone 10^−12 mol/l): 0.1 ± 19%
production of IL-1beta, change ([1]; beclometasone 10^−12 mol/l): 0%
Effect vs. cineol 10^−6 mol/l Inhibition (%) ([1]; beclometasone 10^−12 mol/l, (+) in brackets = more IL-1beta than with cineol): (+47.8 ± 19) %
IL-1beta ([1]; beclometasone 10^−12 mol/l): 5246 ± 1028 Pg/5 × 10^4 cells
inhibition of LPS-stimulated production of IL-1beta ([1]; beclometasone on its own, concentration not given): 49.9±20%
O2^− [2, 3]: 16052 ± 969 nmol/mL
O2^− [2, 4]: 17338 ± 1305 nmol/mL
Percent of control [2, 3]: −10 ± 6%
Percent of control [2, 4]: −8 ± 7%
O2^− [2, 5]: 16445 ± 903 nmol/mL
O2^− [2, 6]: 17577 ± 1191 nmol/mL
Percent of control [2, 5]: −8 ± 5%
Percent of control [2, 6]: −6 ± 7%
O2^− [2, 7]: 16562 ± 1081 nmol/mL
O2^− [2, 8]: 17639 ± 1372 nmol/mL
Percent of control [2, 7]: −7 ± 6%
Percent of control [2, 8]: −6 ± 8%
O2^− ([2]; beclometasone 10^−6 mol/l, 20 hours, Table 3 series): 18240 ± 463 nmol/mL
O2^− ([2]; beclometasone 10^−7 mol/l, 20 hours, Table 3 series): 16782 ± 678 nmol/mL
Percent of control ([2]; beclometasone 10^−7 mol/l, vs FCS control, Table 3 series): +5.8 ± 4%
O2^− ([2]; beclometasone 10^−8 mol/l, 20 hours, Table 3 series): 16035 ± 639 nmol/mL
Percent of control ([2]; beclometasone 10^−8 mol/l, vs FCS control, Table 3 series): −1.1 ± 4%
O2^− ([2]; beclometasone 10^−9 mol/l, 20 hours, Table 3 series): 14192 ± 733 nmol/mL
Percent of control ([2]; beclometasone 10^−9 mol/l, vs FCS control, Table 3 series): −10.5±5%
O2^− ([2]; beclometasone 10^−10 mol/l, 20 hours, Table 3 series): 14702 ± 682 nmol/mL
Percent of control ([2]; beclometasone 10^−10 mol/l, vs FCS control, Table 3 series): −7.3 ± 5%
O2^− ([2]; beclometasone 10^−11 mol/l, 20 hours, Table 3 series): 15042 + 568 nmol/ml
Percent of control ([2]; beclometasone 10^−11 mol/l, vs FCS control, Table 3 series): −5.1 ± 3%
effect on the O2^− production ([2]; beclometasone 10^−11 to 10^−9 mol/l on its own, Table 6 series): no detectable effect on the O2^− production
O2^− ([2]; beclometasone 10^−12 mol/l, 20 hours, Table 3 series): 15050 ± 455 nmol/mL
Percent of control ([2]; beclometasone 10^−12 mol/l, vs FCS control, Table 3 series): −5.1 ± 3%
monocyte O2^− production ([2]; high concentrations (10^−8 mol/l and above) of beclometasone, FIG. 4): stimulated the monocyte O2^− production
